Data from patent US20080255099A1 (priority 2004, published 2008).
Where two headings read alike, the source gives them in different places.

Tests used:
[1] = target: T1, Biot-Hif-1α^786-826/GST-p300^323/423 (Homo sapiens, UniProt Q09472); assay: Inhibition of Hif-1α/p300 interaction, DELFIA fluorescence assay; format: binding; conditions: for inhibition of the interaction between Hif-1α and p300 (in words): fluorescency assay adapted from Freedman et al.
T1 construct: the p300 region comprised between the 323-423 aminoacids; made in house; host or cells: E. coli BL21 (DE3), vector pGEX-4T-1

secreted VEGF = assay: Secreted VEGF ELISA test in Hep3B-VEGF Luciferase cells under deferoxamine-induced hypoxia; format: cell-based, human; conditions: deferoxamine 100 μM, 18-20 h, read-out: IC50 for inhibition of secreted VEGF (ELISA)
VEGF promoter = assay: Luciferase assay for inhibition of the VEGF promoter in Hep3B-VEGF Luciferase cells; format: cell-based, human; conditions: deferoxamine 100 μM, 18-20 h, read-out: IC50 for inhibition of luciferase signal (VEGF promoter)
HeLa = HeLa cells; T. Saito et al. 1985; cited from earlier work
tumor growth = conditions: tumor-bearing mice; Kung et al. 2004; cited from earlier work

T1 sequence (Q09472 323-423): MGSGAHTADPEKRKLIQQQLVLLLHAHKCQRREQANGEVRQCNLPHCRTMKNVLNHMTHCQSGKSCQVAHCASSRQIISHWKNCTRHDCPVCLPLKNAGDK

CN1C(=O)[C@@]23CC4([C@]56C[C@@]78SS[C@@](CO)(C(=O)N7[C@H]5Nc5ccccc56)N(C)C8=O)c5ccccc5N[C@@H]4N2C(=O)[C@]1(CO)SS3 (stereo partly shown) [chaetocin]
IC50 [1]: 12500 nM
inhibition of the interaction between Hif-1α and p300 (in words) [1]: able to inhibit the interaction between Hif-1α and p300
IC50 (secreted VEGF; Homo sapiens): 100 nM
IC50 (VEGF promoter; Homo sapiens): 40 nM
cytotoxic activity IC50 (HeLa): about 0.03 μg/mL

CN1C(=O)[C@]23SS[C@@]1(CO)C(=O)N2[C@H]1Nc2ccccc2C1([C@@]12c4ccccc4N[C@@H]1N1C(=O)[C@]4(CO)SS[C@]1(C(=O)N4C)[C@H]2O)[C@@H]3O (stereo partly drawn) [11α,11α′-dihydroxy Chaetocin, reference compound]
cytotoxic activity IC50 (HeLa): about 0.03 μg/mL

gliotoxin
inhibition of the interaction between Hif-1α and p300 (in words) [1]: able to inhibit the interaction between Hif-1α and p300
IC50 (secreted VEGF): 200 nM
IC50 (VEGF promoter): 50 nM

CN1C(=O)[C@]2(Cc3cn(C45C[C@@]67SS[C@@](CO)(C(=O)N6[C@H]4Nc4ccccc45)N(C)C7=O)c4ccccc34)SS[C@@]1(CO)C(=O)N2C (stereo partly shown) [chaetomin]
tumor growth and hypoxia-induced transcription in the tumor (in words) (tumor growth): inhibits hypoxia-induced transcription in the tumor and tumor growth
